Results as given in ChEMBL document CHEMBL1138720, “Synthesis, (1-->3)-beta-D-glucanase-binding ability and phytoalexin-elicitor activity of (R)-2,3-epoxypropyl (1-->3)-beta-D-pentaglucoside” (Bioorg Med Chem Lett, 2004).

Assays:
[1] = Inactivation of (1-3)-beta-D-glucanase by the compound was determined
[2] = Phytoalexin-elicitor activity in tobacco cotyledon tissue was determined after 22 hrs; type: functional, Nicotiana tabacum
[3] = Phytoalexin-elicitor activity in tobacco cotyledon tissue was determined after 44 hrs; type: functional, Nicotiana tabacum
[4] = Phytoalexin-elicitor activity in tobacco cotyledon tissue was determined after 66 hrs; type: functional, Nicotiana tabacum

OC[C@H]1O[C@@H](O[C@@H]2[C@@H](O)[C@H](O[C@@H]3[C@@H](O)[C@H](O[C@@H]4[C@@H](O)[C@H](O[C@@H]5[C@@H](O)[C@H](OC[C@H]6CO6)O[C@H](CO)[C@H]5O)O[C@H](CO)[C@H]4O)O[C@H](CO)[C@H]3O)O[C@H](CO)[C@H]2O)[C@H](O)[C@@H](O)[C@@H]1O
K app [1]: 0.000379 min⁻¹ | EC50 [2]: 90 uM l-1 | EC50 [3]: 80 uM l-1 | EC50 [4]: 160 uM l-1
